From PMC12528653, “Functional characterization of key enzymes involved in the biosynthesis of distinctive flavonoids and stilbenoids in Morus notabilis” (Horticulture Research, 2025)

Assays:
Assay in all cases: HPLC product assay, relative activity vs wild type
Assay type in all cases: biochemical
MnFLS [1] = target: T1, MnFLS (Morus notabilis, UniProt W9RQ78, T117I); conditions: 100 μM substrate; 2-oxoglutarate, ascorbate, FeSO4; Tris-HCl pH 7.0, 30°C, 1 h
T1 construct: gene L484_013110; full-length ORF (1008 bp, 335 aa) in pET32a, E. coli BL21(DE3), purified recombinant

MnFLS [2] = target: T2, MnFLS (Morus notabilis, UniProt W9RQ78, K202V); conditions: 100 μM substrate; 2-oxoglutarate, ascorbate, FeSO4; Tris-HCl pH 7.0, 30°C, 1 h
T2 construct: gene L484_013110; full-length ORF (1008 bp, 335 aa) in pET32a, E. coli BL21(DE3), purified recombinant

MnFLS [3] = target: T3, MnFLS (Morus notabilis, UniProt W9RQ78, L224M); conditions: 100 μM substrate; 2-oxoglutarate, ascorbate, FeSO4; Tris-HCl pH 7.0, 30°C, 1 h; wild-type residue also printed as Met224
T3 construct: gene L484_013110; full-length ORF (1008 bp, 335 aa) in pET32a, E. coli BL21(DE3), purified recombinant

MnFLS [4] = target: T4, MnFLS (Morus notabilis, UniProt W9RQ78, T117S); conditions: 100 μM substrate; 2-oxoglutarate, ascorbate, FeSO4; Tris-HCl pH 7.0, 30°C, 1 h
T4 construct: gene L484_013110; full-length ORF (1008 bp, 335 aa) in pET32a, E. coli BL21(DE3), purified recombinant
T4 sequence (W9RQ78 entry or part of it T117S): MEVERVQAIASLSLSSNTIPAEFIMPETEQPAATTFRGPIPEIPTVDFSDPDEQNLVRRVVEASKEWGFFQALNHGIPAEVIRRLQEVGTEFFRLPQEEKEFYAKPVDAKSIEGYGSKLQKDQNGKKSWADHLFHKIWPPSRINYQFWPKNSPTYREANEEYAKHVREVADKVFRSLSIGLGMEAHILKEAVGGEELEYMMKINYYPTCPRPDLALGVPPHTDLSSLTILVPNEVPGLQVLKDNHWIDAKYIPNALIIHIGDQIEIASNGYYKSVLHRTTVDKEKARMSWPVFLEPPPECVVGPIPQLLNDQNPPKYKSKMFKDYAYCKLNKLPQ

T2 sequence (W9RQ78 entry or part of it K202V): as the sequence (W9RQ78 entry or part of it T117S) above, with S117T, K202V counted along it
T3 sequence (W9RQ78 entry or part of it L224M): as the sequence (W9RQ78 entry or part of it T117S) above, with S117T, L224M counted along it
T1 sequence (W9RQ78 entry or part of it T117I): as the sequence (W9RQ78 entry or part of it T117S) above, with S117I counted along it

SMILES | HPLC product assay, relative activity vs wild type (MnFLS [1]) | HPLC product assay, relative activity vs wild type (MnFLS [2]) | HPLC product assay, relative activity vs wild type (MnFLS [3]) | HPLC product assay, relative activity vs wild type (MnFLS [4])
O=C1c2c(O)cc(O)cc2O[C@H](c2ccc(O)cc2)[C@H]1O [dihydrokaempferol] | replacing the Thr117 with Ile led to reduced activity | the mutant K202V suffered an almost complete loss of enzymatic function | The variant L224M facilitated the conversion of dihydrokaempferol to kaempferol | T117S resulted in significant enhancement of activity for both naringenin and dihydrokaempferol as substrates
O=C1C[C@@H](c2ccc(O)cc2)Oc2cc(O)cc(O)c21 [naringenin] | replacing the Thr117 with Ile led to reduced activity | the mutant K202V suffered an almost complete loss of enzymatic function | promoted an increased synthesis of dihydrokaempferol and kaempferol from naringenin | T117S resulted in significant enhancement of activity for both naringenin and dihydrokaempferol as substrates
